Measured values reported in patent US12060588B2, “Methods of editing DNA methylation” (Whitehead Institute for Biomedical Research, priority 2016, dated 2024).

Tested on: BDNF promoter IV / BDNF expression
Assay: BDNF expression in mouse cortical neurons (RT-qPCR)
Format: cell-based
Experimental: FIGS. 3A-3E depict targeted demethylation of BDNF promoter IV by dCas9-Tet1 to activate BDNF in neurons. FIG. 3A provides a schematic representation of targeting BDNF promoter IV by dCas9-Tet1 (dC-T) with specific gRNAs to erase methylation and activate BDNF expression. […] Bars are mean t SD of three biological replicates. FIG. 3C provides representative confocal images for BDNF induction in FIG. 3B. Top panel: BDNF expression was induced by 50 mM KCl treatment for 6 hrs. […] Stained in red for MAP2 (top two panels) or Cherry (bottom two panels), green for BDNF, blue for DAPI and grey for dCas9. Scale bar: 50 um. FIG. 3D depicts bisulfite sequencing of neurons in FIG. 3C. […] Shown is the mean percentage±SD of two biological replicates.
FIGS. 11A-11L depict targeted demethylation of BDNF promoter IV by dCas9-Tet1 in neurons. […] PAM for each gRNA is highlighted by a red box. […] Note that cultured neurons were treated with AraC on DIV2 to halt cell division in glial cells and neural progenitors. […] FIG. 11C provides EDU labeling analysis for the mouse primary neurons over the course of KCl treatment for 24 hrs. Note that extremely few EDU positive cells were observed. Stained in red for EDU, green for MAP2 and DAPI for nuclei. Scale bar: 500 um. FIG. 11D Upper panel: provides quantification of neuronal density over the course of KCl treatment. The post-mitotic neuron density remains steadily around 4.5×10^4/cm2 over time. Bars represent mean±SD of three experimental replicates. Lower panel: provides quantification of the EDU positive cells over the course of KCl treatment. Less than 2% of the cells are EDU-positive over 24 hrs. Bars represent mean±SD of three experimental replicates. FIG. 11E provides confocal micrographs of BDNF induction by ectopic expression of dCas9-Tet1 and a set of 4 gRNAs targeting BDNF promoter IV. Stained in green for BDNF, magenta for MAP2, red for Cherry and blue for DAPI. Note that the lentiviral infection efficiency is close to 100% in these neurons. Scale bar: 50 um. […] Bars represent mean±SD of three experimental replicates. […] FIG. 11J depicts DIV3 mouse cortical neurons were treated with ABT (50 uM) for 6 hours and then treated with KCl (50 mM) for 6-hour before harvest for RT-qPCR analysis. Bars represent mean±SD of three experimental replicates. FIG. 11K depicts DIV3 mouse cortical neurons were treated with 2-Hydroxyglutarate (10 mM) for 2 hours and then treated with KCl (50 mM) for 6-hour before harvest for RT-qPCR analysis. Bars represent mean±SD of three experimental replicates. FIG. 11L depicts DIV3 mouse cortical neurons derived from wild-type or Tet1 knockout E17.5 embryos were subject to time course KCl treatment experiments (6, 9 and 12 h). Bars represent mean±SD of three experimental replicates.
DNA replication-independent active demethylation has been proposed to operate in post-mitotic neurons (Guo et al., 2011; Martinowich et al., 2003). To test whether active demethylation can be induced in post-mitotic neurons, we applied the dCas9-Tet1 system to study the regulation of the BDNF gene. BDNF expression can be induced by neuronal activity accompanied by demethylation of its promoter IV (Chen et al., 2003; Martinowich et al., 2003). We designed 4 gRNAs targeting 11 CpGs in BDNF promoter IV (FIG. 11A) to determine whether dCas9-Tet1 can activate BDNF by inducing demethylation of this promoter (FIG. 3A). Mouse cortical neurons were isolated from E17.5 embryos and cultured for two days in vitro (DIV2) following a well-established experimental procedure for producing primary neuronal culture (Ebert et al., 2013). […] Neurons at day 3 in culture (DIV3) were infected with lentiviral vectors expressing dCas9-Tet1 with or without the 4 gRNAs at almost 100% transduction efficiency (FIG. 11E). At 48-hour post infection some of the cultures were treated with KCl to induce neuronal activity. […] We performed bisulfite sequencing to examine the methylation state of BDNF promoter IV. […]

[1] = with 4 gRNAs targeting BDNF promoter IV, DIV3 neurons, lentiviral infection 2 days

With “dCas9-Tet1: catalytically inactive Cas9 (dCas9) fused through NLS to the Tet1 catalytic domain, SEQ ID NO: 159; lentivirally expressed with gRNAs” the “induction of BDNF expression” value (in the absence of gRNAs, DIV3 neurons, lentiviral infection 2 days) was “less than 2 fold”, the “induction of BDNF expression” value [1] was “about 6 fold” and the “induction of BDNF expression” value (with each individual gRNA targeting BDNF promoter IV) was 2-3 fold.
For “dC-dT: dCas9 fused to an inactive mutant form of Tet1 (H1672Y, D1674A), SEQ ID NO: 160”, the “induction of BDNF expression” value [1] was “no induction”.
